Experimental findings from patent publication US8394825B2, “Compound” (Sterix Limited, priority 2007, dated 2013) are described below.

For orientation: melting point means the temperature of the solid-liquid transition. As usually defined, the GI50 is the concentration that inhibits growth by half.

One series deals with DU145 cells. Description: Antiproliferative assay in DU145 cells, WST-1 cell proliferation assay, 96 hours (GI50). The series is classed as cell-based. To be noted: Homo sapiens, DU-145, 96 hours post-treatment, triplicate. A digest of the protocol: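 DU145 cells seeded at 5000 cells/well, treated with […] compound or vehicle for 96 h. Viability read by WST-1, expressed as percent of mean control, GI50 derived; triplicate experiments.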
A general note: Formazan colour is commonly taken as a measure of viable cells.

Bounds are passed on as bounds.

Molecule `COc1cc2c(cc1OCc1ccccc1)CCN(C(=O)c1cccc(C#N)c1)C2=O` [compound 135, 6-Benzyloxy-2-(3-cyanobenzoyl)-7-methoxy-3,4-dihydro-2H-isoquinoline-1-one] showed a melting point of 195 to 196 °C. In the series with DU145 cells, this molecule registered a concentration for 50% growth inhibition (GI50) above 100 µM.
For `COc1cc2c(cc1O)CCN(C(=O)c1ccccc1OC)C2=O` [compound 138, 6-Hydroxy-7-methoxy-2-(2-methoxybenzoyl)-3,4-dihydro-2H-isoquinoline-1-one], in that order: 199 to 200 °C and below 10 µM.
For `COc1cccc(C(=O)N2CCc3cc(O)c(OC)cc3C2=O)c1` [compound 139, 6-Hydroxy-7-methoxy-2-(3-methoxybenzoyl)-3,4-dihydro-2H-isoquinoline-1-one], in that order: 198 to 199 °C and below 10 µM.
For `COc1ccc(C(=O)N2CCc3cc(O)c(OC)cc3C2=O)cc1` [compound 140, 6-Hydroxy-7-methoxy-2-(4-methoxybenzoyl)-3,4-dihydro-2H-isoquinolin-1-one], in that order: 224 to 225 °C and above 100 µM.
On to `COc1cc(OC)cc(C(=O)N2CCc3cc(O)c(OC)cc3C2=O)c1` [compound 141, 2-(3,5-Dimethoxybenzoyl)-6-hydroxy-7-methoxy-3,4-dihydro-2H-isoquinolin-1-one], for which the melting point lay within 198 to 199 °C. In addition, the GI50 with DU145 cells is below 10 µM.
For `COc1cc2c(cc1O)CCN(C(=O)c1ccc(OC)c(OC)c1)C2=O` [compound 142, 2-(3,4-Dimethoxybenzoyl)-6-hydroxy-7-methoxy-3,4-dihydro-2H-isoquinoline-1-one], in that order: 199 to 200 °C and below 10 µM.
For `COc1cc2c(cc1O)CCN(C(=O)c1cc(OC)c(OC)c(OC)c1)C2=O` [compound 143, 6-Hydroxy-7-methoxy-2-(3,4,5-trimethoxybenzoyl)-3,4-dihydro-2H-isoquinolin-1-one], in that order: 175 to 176 °C and below 10 µM.
In turn, `COc1cc2c(cc1O)CCN(C(=O)c1cccc(C#N)c1)C2=O` [compound 144, 2-(3-Cyanobenzoyl)-6-hydroxy-7-methoxy-3,4-dihydro-2H-isoquinoline-1-one] returned a melting point of 197 to 198 °C. The molecule further registered a GI50 in the series with DU145 cells of 50 to 100 µM.
In the case of `COc1cc2c(cc1O)CCN(C(=O)c1ccc(C#N)cc1)C2=O` [compound 145, 2-(4-Cyanobenzoyl)-6-hydroxy-7-methoxy-3,4-dihydro-2H-isoquinoline-1-one], the melting point was 198 to 199 °C. In addition, the GI50 with DU145 cells is above 100 µM.
For `COc1cccc(COc2cc3c(cc2OC)C(=O)N(Cc2cccc(OC)c2)CC3)c1` [compound 155, 7-Methoxy-2-(3-methoxybenzyl)-6-(3-methoxybenzyloxy)-3,4-dihydro-2H-isoquinolin-1-one], in that order: 85 to 86 °C and above 100 µM.
`COc1ccccc1COc1cc2c(cc1OC)C(=O)N(Cc1ccccc1OC)CC2` [compound 156, 7-Methoxy-2-(2-methoxybenzyl)-6-(2-methoxybenzyloxy)-3,4-dihydro-2H-isoquinolin-1-one] registered a melting point of 133 to 134 °C. In the series on DU145 cells, this molecule displayed a GI50 above 100 µM.
For `COc1cc(CN2CCc3cc(OCc4ccccc4)c(OC)cc3C2=O)cc(OC)c1` [compound 157, 6-(Benzyloxy)-2-(3,5-dimethoxybenzyl)-7-methoxy-3,4-dihydro-2H-isoquinolin-1-one], in that order: 82 to 83 °C and above 100 µM.
For `COc1cc2c(cc1OCc1ccccc1)CCN(Cc1cc(OC)c(OC)c(OC)c1)C2=O` [compound 158, 6-(benzyloxy)-7-methoxy-2-(3,4,5-trimethoxybenzyl)-3,4-dihydro-2H-isoquinolin-1-one], in that order: 136 to 137 °C and above 100 µM.
For `COc1ccc(CN2CCc3cc(O)c(OC)cc3C2=O)cc1` [compound 159, 6-Hydroxy-7-methoxy-2-(4-methoxybenzyl)-3,4-dihydroisoquinolin-1(2H)-one] the same measures were 171 to 172 °C and above 100 µM.
Molecule `COc1cccc(CN2CCc3cc(O)c(OC)cc3C2=O)c1` [compound 160, 6-Hydroxy-7-methoxy-2-(3-methoxy-benzyl)-3,4-dihydro-2H-isoquinolin-1-one] had a melting point of 181 to 182 °C. In the series on DU145 cells, this molecule returned a GI50 above 100 µM.
For `COc1cc2c(cc1O)CCN(Cc1ccccc1OC)C2=O` [compound 161, 6-Hydroxy-7-methoxy-2-(2-methoxybenzyl)-3,4-dihydro-2H-isoquinolin-1-one], in that order: 164 to 165 °C and above 100 µM.
For `COc1cc(CN2CCc3cc(O)c(OC)cc3C2=O)cc(OC)c1` [compound 162, 2-(3,5-dimethoxybenzyl)-6-hydroxy-7-methoxy-3,4-dihydro-2H-isoquinolin-1-one], in that order: 166 to 167 °C and above 100 µM.
For `COc1cc2c(cc1O)CCN(Cc1cc(OC)c(OC)c(OC)c1)C2=O` [compound 163, 6-hydroxy-7-methoxy-2-(3,4,5-trimethoxybenzyl)-3,4-dihydro-2H-isoquinolin-1-one] the same measures were 168 to 169 °C and above 100 µM.
With `COc1cccc(S(=O)(=O)N2CCc3cc(OCc4ccccc4)c(OC)cc3C2)c1` [compound 169, 6-Benzyloxy-7-methoxy-2-(3-methoxy-benzenesulfonyl)-1,2,3,4-tetrahydroisoquinoline], the melting point is 124 to 125 °C. Further, in the series with DU145 cells, the GI50 was above 100 µM.
For `COc1cc2c(cc1OCc1ccccc1)CCN(S(=O)(=O)c1cccc(OC(F)(F)F)c1)C2` [compound 170, 6-Benzyloxy-7-methoxy-2-(3-trifluoromethoxy-benzenesulfonyl)-1,2,3,4-tetrahydroisoquinoline], in that order: 118 to 120 °C and above 100 µM.
As to `COc1cc2c(cc1OCc1ccccc1)CCN(S(=O)(=O)c1cccc(C)c1)C2` [compound 171, 6-Benzyloxy-7-methoxy-2-(toluene-3-sulfonyl)-1,2,3,4-tetrahydroisoquinoline], the melting point lay in the range of 144 to 147 °C. The molecule also yielded a GI50 in the series on DU145 cells above 100 µM.
For `COc1cc2c(cc1OCc1ccccc1)CCN(S(=O)(=O)c1cccc(C(F)(F)F)c1)C2` [compound 172, 6-Benzyloxy-7-methoxy-2-(3-trifluoromethyl-benzenesulfonyl)-1,2,3,4-tetrahydroisoquinoline] the same measures were 136 to 138.5 °C and above 100 µM.
For `COc1cccc(S(=O)(=O)N2CCc3cc(O)c(OC)cc3C2)c1` [compound 178, 6-Hydroxy-7-methoxy-2-(3-methoxy-benzenesulfonyl)-1,2,3,4-tetrahydroisoquinoline], in that order: 168 to 170 °C and above 100 µM.
For `COc1cc2c(cc1O)CCN(S(=O)(=O)c1cccc(OC(F)(F)F)c1)C2` [compound 179, 6-Hydroxy-7-methoxy-2-(3-trifluoromethoxy-benzenesulfonyl)-1,2,3,4-tetrahydroisoquinoline] the same measures were 202 to 203 °C and above 100 µM.
Turning to `COc1cc2c(cc1O)CCN(S(=O)(=O)c1cccc(C)c1)C2` [compound 180, 6-Hydroxy-7-methoxy-2-(toluene-3-sulfonyl)-1,2,3,4-tetrahydroisoquinoline], the melting point is 176 to 179 °C. Besides, the GI50 in the series on DU145 cells is above 100 µM.
For `COc1cc2c(cc1O)CCN(S(=O)(=O)c1cccc(C(F)(F)F)c1)C2` [compound 181, 6-Hydroxy-7-methoxy-2-(3-trifluoromethyl-benzenesulfonyl)-1,2,3,4-tetrahydroisoquinoline], the melting point lay within 178 to 180 °C. The same molecule yielded a GI50 in the series on DU145 cells above 100 µM.
For `COc1cc2c(cc1O)CCN(S(=O)(=O)c1cccc(Cl)c1)C2` [compound 182, 2-(3-Chloro-benzenesulfonyl)-6-hydroxy-7-methoxy-1,2,3,4-tetrahydroisoquinoline] the same measures were 175 to 178 °C and above 100 µM.
For `COc1cc2c(cc1O)CCN(S(=O)(=O)c1ccccc1C#N)C2` [compound 183, 2-(2-Cyano-benzenesulfonyl)-6-hydroxy-7-methoxy-1,2,3,4-tetrahydroisoquinoline], in that order: 164 to 167 °C and above 100 µM.
Take `COc1cc2c(cc1O)CCN(S(=O)(=O)c1ccccc1OC)C2` [compound 184, 6-Hydroxy-7-methoxy-2-(2-methoxy-benzenesulfonyl)-1,2,3,4-tetrahydroisoquinoline]: the melting point lay within 140 to 142 °C. Also, in the series on DU145 cells, the GI50 was above 100 µM.
For `COc1ccc(S(=O)(=O)N2CCc3cc(O)c(OC)cc3C2)cc1` [compound 185, 6-Hydroxy-7-methoxy-2-(4-methoxy-benzenesulfonyl)-1,2,3,4-tetrahydroisoquinoline] the same measures were 147 to 149 °C and above 100 µM.
For `COc1cc2c(cc1O)CCN(S(=O)(=O)c1cccc(C#N)c1)C2` [compound 186, 2-(3-Cyano-benzenesulfonyl)-6-hydroxy-7-methoxy-1,2,3,4-tetrahydroisoquinoline], in that order: 204 to 206 °C and above 100 µM.
As to `COc1cc2c(cc1OCc1ccccc1)CCN(S(=O)(=O)c1ccccc1OC)C2=O` [compound 197, 6-Benzyloxy-7-methoxy-2-(2-methoxy-benzenesulfonyl)-3,4-dihydro-2H-isoquinolin-1-one], the melting point is 202 to 203 °C. This molecule registered a GI50 in the series on DU145 cells above 100 µM.
For `COc1cc2c(cc1OCc1ccccc1)CCN(S(=O)(=O)c1cccc(Cl)c1)C2=O` [compound 199, 6-Benzyloxy-2-(3-chloro-benzenesulfonyl)-7-methoxy-3,4-dihydro-2H-isoquinolin-1-one] the same measures were 155 to 158 °C and above 100 µM.
